From patent US20250277012A1 (Protagonist Therapeutics, Inc., priority 2021, published 2025)
Where two headings read alike, the source gives them in different places. Starred links: 1 amine or outer side, 2 acyl side, 3 side chain; linkers in the order of their positions; H or OH if unused. Positions of bridges follow the written chain, without caps; N, C: chain ends. Non-standard residues stand in square brackets, D forms with d. Residues, ends and D or L forms follow the SMILES beside them. Groups on a side chain read outwards from the residue. *: point of attachment. CH3O(CH2CH2O)11CH2CH2CO = COCCOCCOCCOCCOCCOCCOCCOCCOCCOCCOCCOCCC(=O)*; X1 = C[N+](C)(CCNC(=O)CCCCCCCCCCCCCCCCC(=O)O)CC(=O)*; Ala(quinolin-3-yl) = N[C@@H](Cc1cnc2ccccc2c1)C(=O)O; Bip = N[C@@H](Cc1ccc(-c2ccccc2)cc1)C(=O)O; C18 diacid = O=C(O)CCCCCCCCCCCCCCCCC(=O)*; Dip = N[C@H](C(=O)O)C(c1ccccc1)c1ccccc1; γGlu = O=C(O)[C@H](CCC(=O)[*:2])N[*:1]; Palmitoyl = CCCCCCCCCCCCCCCC(=O)*; β3hF = N[C@H](CC(=O)O)Cc1ccccc1; X3 = CCCCCCCCCCCCCCCC(=O)NCCC*; NMeK = CN[C@@H](CCCCN)C(=O)O; Nicotinoyl = O=C(c1cccnc1)*; Isovaleryl = CC(C)CC(=O)*; hCys = N[C@@H](CCS)C(=O)O; Dap = NC[C@H](N)C(=O)O; AEEA = NCCOCCOCC(=O)O; Ahx = NCCCCCC(=O)O

What was measured:
ferroportin [1] = biological target: T1, ferroportin (Homo sapiens, UniProt Q9NP59); assay: FPN activity assay: ferroportin-GFP internalization/degradation in HEK293 cells; assay type: cell-based; parameters: expressed in transfected cells; conditions: read-out: FPN IC50
T1 sequence (Q9NP59 1-571): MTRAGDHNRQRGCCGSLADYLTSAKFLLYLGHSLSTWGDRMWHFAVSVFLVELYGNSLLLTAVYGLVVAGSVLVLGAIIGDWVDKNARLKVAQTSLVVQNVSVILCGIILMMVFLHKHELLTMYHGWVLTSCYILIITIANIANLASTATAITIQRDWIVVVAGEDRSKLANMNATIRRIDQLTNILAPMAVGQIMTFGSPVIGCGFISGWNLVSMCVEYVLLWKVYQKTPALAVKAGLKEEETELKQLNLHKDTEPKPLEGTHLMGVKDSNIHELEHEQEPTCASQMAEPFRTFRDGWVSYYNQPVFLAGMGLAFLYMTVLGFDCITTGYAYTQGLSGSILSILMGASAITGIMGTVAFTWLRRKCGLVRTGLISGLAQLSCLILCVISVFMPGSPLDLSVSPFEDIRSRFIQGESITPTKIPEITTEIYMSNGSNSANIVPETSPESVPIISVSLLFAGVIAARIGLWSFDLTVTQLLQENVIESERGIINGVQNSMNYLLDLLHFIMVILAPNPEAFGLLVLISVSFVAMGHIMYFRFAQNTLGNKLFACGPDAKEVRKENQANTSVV
Protocol: Following internalization, the ferroporin protein is degraded.
A retro inverse peptide is a peptide with a reversed sequence in all D amino acids. An example is that Hy-Glu-Thr-His-NH2 becomes Hy-DHis-DThr-DGlu-NH2. The EC50 of these reference compounds for ferroportin internalization/degradation was determined according to the FPN activity assay described above. These peptides served as control standards.

ferroportin [2] = biological target: T1, ferroportin; assay: T47D cell-based ferroportin internalization assay in presence of mouse serum albumin (MSA); parameters: a human breast carcinoma adherent cell line which endogenously expresses ferroportin; host or cells: T47D
In short: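 Peptide potency for inducing ferroportin internalization was measured in T47D cells in the presence of serum albumin. Cells grown in RPMI with fetal bovine serum were seeded in 96-well plates at 80-100 k cells per well in 100 ul and rested overnight. Dilution series of test peptides were preincubated 30 min at room temperature, then added to the cells after the medium was aspirated.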

[3] = Table 6E, ferroportin-GFP internalization/degradation, at least 18 hours incubation
[4] = Table 6E, T47D internalization assay with MSA
[5] = ferroportin-GFP HEK293 cells, at least 18 hours
[6] = T47D cells, 0.5% mouse serum albumin, 1 hr incubation
[7] = ferroportin-GFP internalization/degradation, HEK293 cells, Table 6E
[8] = T47D internalization assay in presence of mouse serum albumin (MSA), Table 6E

Row | Compound | DC50 (ferroportin [1]; [3]) [nM] | IC50 (ferroportin [2]; [4]) [nM] | DC50 (ferroportin [1]; [5]) [nM] | IC50 (ferroportin [2]; [6]) [nM] | DC50 (ferroportin [1]; [7]) [nM] | IC50 (ferroportin [2]; [8]) [nM]
1 | CCCCCCCCCCCCCCCC(=O)NCCCC[C@H]1C(=O)N[C@@H](C(c2ccccc2)c2ccccc2)C(=O)N[C@@H](C(N)=O)CCCCNC(=O)CC[C@H](NC(=O)CC(C)C)C(=O)N[C@@H]([C@@H](C)O)C(=O)N[C@@H](Cc2c[nH]cn2)C(=O)N[C@@H](C(c2ccccc2)c2ccccc2)C(=O)N2CCC[C@H]2C(=O)N[C@H]2CSSC[C@H](NC2=O)C(=O)N1C [compound 142] (Isovaleryl-ETH[Dip]PCC[NMeK](Palmitoyl)[Dip][dK]-NH2; lactam 1-10; disulfide 6-7) | 1 to 10 | 10 to 100 | – | – | – | –
2 | CC[C@H](C)[C@H](NC(=O)[C@@H]1CSSC[C@H](NC(=O)[C@@H](NC(=O)[C@H](Cc2c[nH]cn2)NC(=O)[C@@H](NC(=O)[C@H](CCC(=O)O)NC(=O)CC(C)C)[C@@H](C)O)C(c2ccccc2)c2ccccc2)C(=O)N1)C(=O)N[C@@H](CCCCNC(=O)COCCOCCNC(=O)COCCOCCNC(=O)CCCCCNC(=O)CCCCCCCCCCCCCCCCC(=O)O)C(=O)N[C@H](CC(=O)N[C@H](CCCCN)C(N)=O)Cc1ccccc1 [Compd 21] (Isovaleryl-ETH[Dip]CCIK([AEEA-AEEA-Ahx-C18 diacid])[β3hF][dK]-NH2; disulfide 5-6) | – | – | 10 to 100 | 10 to 100 | – | –
3 | CC(C)CC(=O)N[C@@H](CCC(=O)O)C(=O)N[C@H](C(=O)N[C@@H](Cc1c[nH]cn1)C(=O)N[C@H](C(=O)N1CCC[C@H]1C(=O)N[C@H]1CSSC[C@@H](C(=O)N[C@@H](CCCCNC(=O)COCCOCCNC(=O)COCCOCCNC(=O)CCCCCNC(=O)CCCCCCCCCCCCCCCCC(=O)O)C(=O)N[C@H](CC(=O)N[C@H](CCCCN)C(N)=O)Cc2ccccc2)NC1=O)C(c1ccccc1)c1ccccc1)[C@@H](C)O [Compd 22] (Isovaleryl-ETH[Dip]PCCK([AEEA-AEEA-Ahx-C18 diacid])[β3hF][dK]-NH2; disulfide 6-7) | – | – | 10 to 100 | 10 to 100 | – | –
4 | CCCCCCCCCCCCCCCC(=O)NCCCSCC[C@H](NC(=O)[C@@H]1CSSC[C@H](NC(=O)[C@@H]2CCCN2C(=O)[C@@H](NC(=O)[C@H](Cc2cnc[nH]2)NC(=O)[C@@H](NC(=O)[C@H](CCC(=O)O)NC(=O)CC(C)C)[C@@H](C)O)C(c2ccccc2)c2ccccc2)C(=O)N1)C(=O)N[C@H](C(=O)N[C@H](CCCCN)C(N)=O)C(c1ccccc1)c1ccccc1 [compound 162] (Isovaleryl-ETH[Dip]PCC[hCys](X3)[Dip][dK]-NH2; disulfide 6-7) | 10 to 100 | 1 to 10 | – | – | – | –
5 | CC(C)CC(=O)N[C@@H](CCC(=O)O)C(=O)N[C@H](C(=O)N[C@@H](Cc1cnc2ccccc2c1)C(=O)N[C@H](C(=O)N1CCC[C@H]1C(=O)N[C@H]1CSSC[C@@H](C(=O)N(C)[C@@H](CCCCNC(=O)COCCOCCNC(=O)COCCOCCNC(=O)[C@H](CN)NC(=O)CCCCCCCCCCCCCCCCC(=O)O)C(=O)N[C@H](CC(=O)N[C@H](CCCCN)C(N)=O)Cc2ccccc2)NC1=O)C(c1ccccc1)c1ccccc1)[C@@H](C)O [compound 296] (Isovaleryl-ET[Ala(quinolin-3-yl)][Dip]PCC[NMeK]([AEEA-AEEA-Dap-C18 diacid])[β3hF][dK]-NH2; disulfide 6-7) | – | – | – | – | > 500 | > 500
6 | CCCCCCCCCCCCCCCC(=O)N[C@@H](CCC(=O)NCCCC[C@@H](C(=O)N[C@H](CC(=O)N[C@H](CCCCNC(=O)CCOCCOCCOCCOCCOCCOCCOCCOCCOCCOCCOCCOC)C(N)=O)Cc1ccccc1)N(C)C(=O)[C@@H]1CSSC[C@H](NC(=O)[C@@H]2CCCN2C(=O)[C@@H](NC(=O)[C@H](Cc2cnc[nH]2)NC(=O)[C@@H](NC(=O)[C@H](CCC(=O)O)NC(=O)CC(C)C)[C@@H](C)O)C(c2ccccc2)c2ccccc2)C(=O)N1)C(=O)O [compound 222] (Isovaleryl-ETH[Dip]PCC[NMeK]([γGlu-Palmitoyl])[β3hF][dK](CH3O(CH2CH2O)11CH2CH2CO)-NH2; disulfide 6-7) | 10 to 100 | 1 to 10 | – | – | – | –
7 | C[C@@H](O)[C@H](NC(=O)[C@H](CCC(=O)O)NC(=O)c1cccnc1)C(=O)N[C@@H](Cc1c[nH]cn1)C(=O)N[C@H](C(=O)N1CCC[C@H]1C(=O)N[C@H]1CSSC[C@@H](C(=O)N(C)[C@@H](CCCCNC(=O)COCCOCCNC(=O)COCCOCCNC(=O)[C@H](CN)NC(=O)CCCCCCCCCCCCCCCCC(=O)O)C(=O)N[C@H](CC(=O)N[C@H](CCCCN)C(N)=O)Cc2ccccc2)NC1=O)C(c1ccccc1)c1ccccc1 [compound 299] (Nicotinoyl-ETH[Dip]PCC[NMeK]([AEEA-AEEA-Dap-C18 diacid])[β3hF][dK]-NH2; disulfide 6-7) | – | – | – | – | 10 to 100 | 10 to 100
8 | CC(C)CC(=O)N[C@@H](CCC(=O)O)C(=O)N[C@H](C(=O)N[C@@H](Cc1cnc[nH]1)C(=O)N[C@H](C(=O)N1CCC[C@H]1C(=O)N[C@H]1CSSC[C@@H](C(=O)N(C)[C@@H](CCCCNC(=O)COCCOCCNC(=O)COCCOCCNC(=O)C[N+](C)(C)CCNC(=O)CCCCCCCCCCCCCCCCC(=O)O)C(=O)N[C@H](CC(=O)N[C@H](CCCCN)C(N)=O)Cc2ccccc2)NC1=O)C(c1ccccc1)c1ccccc1)[C@@H](C)O [compound 283] (Isovaleryl-ETH[Dip]PCC[NMeK]([AEEA-AEEA-X1])[β3hF][dK]-NH2; disulfide 6-7) | – | – | – | – | 10 to 100 | 10 to 100
9 | CC[C@H](C)[C@H](NC(=O)[C@@H]1CSSC[C@H](NC(=O)[C@@H](NC(=O)[C@H](Cc2c[nH]cn2)NC(=O)[C@@H](NC(=O)[C@H](CCC(=O)O)NC(=O)CC(C)C)[C@@H](C)O)C(c2ccccc2)c2ccccc2)C(=O)N1)C(=O)N[C@@H](CCCCNC(=O)COCCOCCNC(=O)COCCOCCNC(=O)CC[C@H](NC(=O)CCCCCCCCCCCCCCCCC(=O)O)C(=O)O)C(=O)N[C@H](CC(=O)N[C@H](CCCCN)C(N)=O)Cc1ccccc1 [Compd 30] (Isovaleryl-ETH[Dip]CCIK([AEEA-AEEA-γGlu-C18 diacid])[β3hF][dK]-NH2; disulfide 5-6) | – | – | 10 to 100 | 10 to 100 | – | –
10 | CC(C)CC(=O)N[C@@H](CCC(=O)O)C(=O)N[C@H](C(=O)N[C@@H](Cc1c[nH]cn1)C(=O)N[C@H](C(=O)N1CCC[C@H]1C(=O)N[C@H]1CSSCC[C@@H](C(=O)N(C)[C@@H](CCCCNC(=O)COCCOCCNC(=O)COCCOCCNC(=O)[C@H](CN)NC(=O)CCCCCCCCCCCCCCCCC(=O)O)C(=O)N[C@H](CC(=O)N[C@H](CCCCN)C(N)=O)Cc2ccccc2)NC1=O)C(c1ccccc1)c1ccccc1)[C@@H](C)O [compound 270] (Isovaleryl-ETH[Dip]PC[hCys][NMeK]([AEEA-AEEA-Dap-C18 diacid])[β3hF][dK]-NH2; disulfide 6-7) | – | – | – | – | 10 to 100 | 10 to 100
11 | CC(C)CC(=O)N[C@@H](CCC(=O)O)C(=O)N[C@H](C(=O)N[C@@H](Cc1c[nH]cn1)C(=O)N[C@H](C(=O)N1CCC[C@H]1C(=O)N[C@H]1CSSC[C@@H](C(=O)N(C)[C@@H](CCCCNC(=O)CCCCCNC(=O)C[N+](C)(C)CCNC(=O)CCCCCCCCCCCCCCCCC(=O)O)C(=O)N[C@@H](Cc2ccc(-c3ccccc3)cc2)C(=O)N[C@H](CCCCN)C(N)=O)NC1=O)C(c1ccccc1)c1ccccc1)[C@@H](C)O [compound 183] (Isovaleryl-ETH[Dip]PCC[NMeK]([Ahx-X1])[Bip][dK]-NH2; disulfide 6-7) | 10 to 100 | 10 to 100 | – | – | – | –
12 | CC[C@H](C)[C@@H]1NC(=O)[C@@H](NC(=O)[C@@H]2CCCN2C(=O)[C@@H](NC(=O)[C@H](Cc2c[nH]cn2)NC(=O)[C@@H](NC(=O)[C@H](CCC(=O)O)NC(=O)CC(C)C)[C@@H](C)O)C(c2ccccc2)c2ccccc2)CSSC[C@@H](C(N)=O)NC(=O)C[C@H](Cc2ccccc2)NC(=O)[C@H](CCCCNC(=O)COCCOCCNC(=O)COCCOCCNC(=O)CCCCCNC(=O)CCCCCCCCCCCCCCCCC(=O)O)NC1=O [Compd 23] (Isovaleryl-ETH[Dip]PCIK([AEEA-AEEA-Ahx-C18 diacid])[β3hF]C-NH2; disulfide 6-10) | – | – | 10 to 100 | 10 to 100 | – | –
13 | COC(=O)CC[C@H](NC(=O)CC(C)C)C(=O)N[C@H](C(=O)N[C@@H](Cc1c[nH]cn1)C(=O)N[C@H](C(=O)N1CCC[C@H]1C(=O)N[C@H]1CSSC[C@@H](C(=O)N[C@@H](CCCCNC(=O)CCCCCNC(=O)C[N+](C)(C)CCNC(=O)CCCCCCCCCCCCCCCCC(=O)O)C(=O)N[C@H](CC(=O)N[C@H](CCCCN)C(N)=O)Cc2ccccc2)NC1=O)C(c1ccccc1)c1ccccc1)[C@@H](C)O [compound 311] (Isovaleryl-E(OMe)TH[Dip]PCCK([Ahx-X1])[β3hF][dK]-NH2; disulfide 6-7) | – | – | – | – | 10 to 100 | 10 to 100
